In US5135935A, “Squalene synthetase inhibitors” (Merck & Co., Inc., priority 1991, dated 1992) one finds inhibition and IC50 data, which are given here for 19 molecules.

As a reminder, the inhibition is the change of the read-out against control, counted positive when it falls. By IC50 is commonly meant the concentration that gives 50% inhibition.

The target of the assay is T1, Squalene Synthetase (Rattus norvegicus, UniProt Q02769).
T1 construct: from tissue; host or cells: liver microsomes of male Charles River CD rats fed 0.1% lovastatin
T1 sequence (Q02769 1-416): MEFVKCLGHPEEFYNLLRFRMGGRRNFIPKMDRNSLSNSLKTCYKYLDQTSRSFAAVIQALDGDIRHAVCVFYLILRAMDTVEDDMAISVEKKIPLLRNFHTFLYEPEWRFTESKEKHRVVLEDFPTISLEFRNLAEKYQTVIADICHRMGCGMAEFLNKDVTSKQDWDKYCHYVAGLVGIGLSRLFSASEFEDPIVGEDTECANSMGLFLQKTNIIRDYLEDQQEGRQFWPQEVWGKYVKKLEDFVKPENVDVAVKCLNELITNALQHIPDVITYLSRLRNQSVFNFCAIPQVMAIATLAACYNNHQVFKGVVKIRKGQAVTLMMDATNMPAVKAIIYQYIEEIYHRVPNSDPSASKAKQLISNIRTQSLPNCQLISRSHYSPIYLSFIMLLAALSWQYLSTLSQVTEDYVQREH
Put plainly: Squalene synthetase assay, rat liver microsomes, [4-14C]farnesyl pyrophosphate. It counts as biochemical. The following applies: salt form as tabulated; for inhibition at 0.3 µg/mL: conc. 0.3 μg/mL; for IC50: 30° C., 20 minutes. The protocol: The intrinsic squalene synthetase inhibitory activity of representative compounds of this invention was measured by the standard in vitro protocol described below:
Male, Charles River CD rats (120 to 150 g) were fed a diet containing 0.1% lovastatin for 4 days. The livers from these rats were homogenized in 5 volumes (mL/g) of ice cold 50 mM HEPES (4-(2-hydroxyethyl)-1-piperazine-ethanesulfonic acid), 5 mM EDTA (ethylenediaminetetraacetic acid) pH 7.5 with a Potter-Elvehjem type tissue grinder. The homogenate was centrifuged twice at 20,000×g for 15 minutes at 4° C., discarding the pellet each time. The supernatant was then centrifuged at 100,000×g for 1 hour at 4° C. The resulting microsomal pellet was resuspended in a volume of the above homogenizing buffer equal to one-fifth the volume of the original homogenate. This microsomal preparation has a protein concentration of about 7 mg/mL. The microsomal suspensions were stored in aliquots at -70° C. Squalene synthetase activity in these aliquots is stable for at least several months.
Prenyl transferase was purified to use in the enzymatic synthesis of radiolabelled farnesyl pyrophosphate. Prenyl transferase was assayed by the method of Rilling (Methods in Enzymology 110, 125-129 (1985)) and a unit of activity is defined as the amount of enzyme that will produce 1 μmole of farnesyl pyrophosphate per minute at 30° C. in the standard assay.
The livers of 23 forty-day old male rats that had been fed 5% cholestyramine plus 0.1% lovastatin were homogenized in a Waring blender in 1 liter of 10 mM mercaptoethanol, 2 mM EDTA, 25 μM leupeptin, 0.005% phenylmethyl sulfonyl fluoride pH 7.0 containing 0.1 trypsin inhibitor units of aprotinin/mL. The homogenate was centrifuged at 20,000×g for 20 minutes. The supernatant was adjusted to pH 5.5. with 6N HOAc and centrifuged at 100,000×g for 1 hour. This supernatant was adjusted to pH 7.0 with 3N KOH and a 35-60% ammonium sulfate fraction taken. The 60% pellet was redissolved in 60 mL of 10 mM potassium phosphate, 10 mM mercaptoethanol, 1 mM EDTA pH 7.0 (Buffer A) and dialyzed against two 1 liter changes of Buffer A. This dialyzed fraction was applied to a 12.5×5 cm column of DEAE-sepharose 4B equilibrated with Buffer A. The column was washed with 700 mL of Buffer A and a 1 liter gradient from Buffer A to 100 mM potassium phosphate, 10 mM mercaptoethanol, 1 mM EDTA pH 7.0. Fractions having a specific activity greater than 0.20 units/mg were combined, solid ammonium sulfate was added to bring to 60% saturation and pelleted. The pellet was dissolved in 8 mL of 10 mM Tris, 10 mM β-mercaptoethanol pH 7.0 (Buffer B). The redissolved pellet was taken to 60% saturation with ammonium sulfate by adding 1.5 volumes of saturated ammonium sulfate in Buffer B. This ammonium sulfate suspension contained 3.5 units/mL with a specific activity of 0.23 units/mg and was free of isopentenyl pyrophosphate isomerase activity. This ammonium sulfate suspension was used for the synthesis of [4-^14 C]farnesyl-pyrophosphate and its activity was stable stored at 4° C. for at least 6 months.
The solvent (ethanol: 0.15N NH4 OH, 1:1) was removed from 55 μCi of [4-^14 C]isopentenyl pyrophosphate(47.9 μCi/μmole) by rotary evaporation. Six hundred microliters of 100 mM Tris, 10 mM MgCl2, 4 mM dithiothreitol pH 7.5 was added and the solution was transferred to a 1.5 ml Eppendorf centrifuge tube. Geranyl-pyrophosphate, 250 μL of a 20 mM solution, and 50 μL of the ammonium sulfate suspension of prenyl transferase were added to initiate the reaction. This incubation contained 5 μmoles of geranyl pyrophosphate, 1.15 μmoles of isopentenyl pyrophosphate, 6 μmoles of MgCl2 of 0.18 units of prenyl transferase in a volume of 900 μL. The incubation was conducted at 37° C. During the incubation, the mix turned cloudy white as the newly formed magnesium complex of farnesyl pyrophosphate precipitated out of solution. […]

The structures appear in SMILES notation. Some results are limits rather than exact numbers.

Consider `Cn1cc(-c2noc(C3CN4CCC3CC4)n2)c2cc(F)ccc21` (centres unmarked) [Compound 4, 3-[3-(5-fluoro-1-methyl-1H-indol-3-yl)-1,2,4-oxadiazol-5-yl]-1-azabicyclo[2.2.2]octane], for which, under “in presence of 1 mM PPi”, the inhibition at 0.3 µg/mL was 97%.

`O=C(c1ccccc1)c1noc(C2CN3CCC2CC3)n1` (centres unmarked) [Compound 37, 3-(3-benzoyl-1,2,4-oxadiazol-5-yl)quinuclidine]: where the note is “in presence of 1 mM PPi”, the inhibition at 0.3 µg/mL was 64%.

`Oc1cccc(-c2noc(C3CN4CCC3CC4)n2)c1` (centres unmarked) [Compound 32, 3-[5-(1-azabicyclo[2.2.2]oct-3-yl)-1,2,4-oxadiazol-5-yl]-phenol]: under “in presence of 1 mM PPi”, the inhibition at 0.3 µg/mL was 92%.

Regarding `COc1cccc(-c2noc(C3CN4CCC3CC4)n2)c1` (centres unmarked) [Compound 28, 3-[3-(3-methoxyphenyl)-1,2,4-oxadiazol-5-yl]-1-azabicyclo[2.2.2]octane], the IC50 (in absence of PPi) turned out to be 2800 nM. For the setting “in presence of 1 mM PPi”, the IC50 amounted to 31 nM and the inhibition at 0.3 µg/mL was found to be 99%.

Turning to `OC(c1ccccc1)c1noc(C2CN3CCC2CC3)n1` (stereo not drawn) [Compound 7, α-phenyl-5-(1-azabicyclo[2.2.2]oct-3-yl)-1,2,4-oxadiazole-3-methanol], the inhibition at 0.3 µg/mL (in presence of 1 mM PPi) is 49%.

For `OC(c1ccccc1)(c1ccccc1)c1noc(C2CN3CCC2CC3)n1` (centres unmarked) [Compound 34, 3-[3-(1,1-diphenyl-1-hydroxymethyl)-1,2,4-oxadiazol-5-yl]-quinuclidine], the inhibition at 0.3 µg/mL (in presence of 1 mM PPi) was determined as 60%.

Turning to `c1ccc(-c2noc(C3CN4CCC3CC4)n2)cc1` (centres unmarked) [Compound 24, 3-[3-phenyl-1,2,4-oxadiazol-5-yl]-1-azabicyclo[2.2.2]octane], where the note is “in presence of 1 mM PPi”, the half-maximal inhibitory concentration (IC50) amounted to 43 nM and the inhibition at 0.3 µg/mL was determined as 98%.

`c1ccc2c(-c3noc(C4CN5CCC4CC5)n3)c[nH]c2c1` (centres unmarked) [Compound 35, 3-[3-(1H-indol-3-yl)-1,2,4-oxadiazol-5-yl]-1-azabicyclo[2.2.2]octane]: under “in absence of PPi”, the IC50 came to 1900 nM. Besides, where the note is “in presence of 1 mM PPi”, the IC50 worked out at 23 nM and the inhibition at 0.3 µg/mL came out at 98%.

With `COc1ccc(-c2noc(C3CN4CCC3CC4)n2)cc1` (centres unmarked) [Compound 30, 3-[3-(4-methoxyphenyl)-1,2,4-oxadiazol-5-yl]-1-azabicyclo[2.2.2]octane], the inhibition at 0.3 µg/mL (in presence of 1 mM PPi) was 99%.

Regarding `Cc1ccc2c(c1)c(-c1noc(C3CN4CCC3CC4)n1)cn2C` (centres unmarked) [Compound 19, 3-[3-(1,5-dimethyl-1H-indol-3-yl)-1,2,4-oxadiazol-5-yl]-1-azabicyclo[2.2.2]octane], under “in presence of 1 mM PPi”, the half-inhibitory concentration (IC50) came to 58 nM and the inhibition at 0.3 µg/mL was found to be 96%.

As to `Cn1cc(-c2noc(C3CN4CCC3CC4)n2)c2ccccc21` (centres unmarked) [Compound 3, 3-[3-(1-methyl-1H-indol-3-yl)-1,2,4-oxadiazol-5-yl]-1-azabicyclo[2.2.2]octane], the IC50 reads like this: (in absence of PPi) 1600 nM; (in presence of 1 mM PPi) 28 nM.

Regarding `c1ccc2ncc(-c3noc(C4CN5CCC4CC5)n3)cc2c1` (centres unmarked) [Compound 36, 3-[3-(3-quinolyl)-1,2,4-oxadiazol-5-yl]-1-azabicyclo[2.2.2]octane], under “in presence of 1 mM PPi”, the IC50 turned out to be 42 nM and the inhibition at 0.3 µg/mL was determined as 97%.

As for `Cn1c(-c2noc(C3CN4CCC3CC4)n2)cc2ccccc21` (centres unmarked) [Compound 15, 3-[3-(1-methyl-1H-indol-2-yl)-1,2,4-oxadiazol-5-yl]-1-azabicyclo[2.2.2]octane], the IC50 is, setting by setting: (in absence of PPi) 1100 nM; (in presence of 1 mM PPi) 20 nM.

Regarding `Oc1ccccc1-c1noc(C2CN3CCC2CC3)n1` (centres unmarked) [Compound 31, 2-[5-(1-azabicyclo[2.2.2]oct-3-yl)-1,2,4-oxadiazol-5-yl]-phenol], the inhibition at 0.3 µg/mL (in presence of 1 mM PPi) was 90%.

In the case of `c1ccc2c(-c3noc(C4CN5CCC4CC5)n3)cccc2c1` (centres unmarked) [Compound 27, 3-[3-(1-naphthalenyl)-1,2,4-oxadiazol-5-yl]-1-azabicyclo[2.2.2]octane], the IC50 was found to be 2300 nM (in absence of PPi) and 11 nM (in presence of 1 mM PPi). Besides, the inhibition at 0.3 µg/mL (in presence of 1 mM PPi) stood at 99%.

Regarding `COc1ccccc1-c1noc(C2CN3CCC2CC3)n1` (centres unmarked) [Compound 29, 3-[3-(2-methoxyphenyl)-1,2,4-oxadiazol-5-yl]-1-azabicyclo[2.2.2]octane], the IC50 reads like this: (in absence of PPi) 14000 nM; (in presence of 1 mM PPi) 250 nM.

Take `CC(=O)OC(c1ccccc1)c1noc(C2CN3CCC2CC3)n1` (centres unmarked) [Compound 6, 3-[3-(1-acetoxy-1-phenylmethyl)-1,2,4-oxadiazol-5-yl]-quinuclidine]: for the setting “in presence of 1 mM PPi”, the inhibition at 0.3 µg/mL turned out to be 70%.

Regarding `Oc1ccc(-c2noc(C3CN4CCC3CC4)n2)cc1` (centres unmarked) [Compound 33, 4-[5-(1-azabicyclo[2.2.2]oct-3-yl)-1,2,4-oxadiazol-5-yl]-phenol], under “in presence of 1 mM PPi”, the inhibition at 0.3 µg/mL worked out at 84%.

Turning to `c1cncc(-c2noc(C3CN4CCC3CC4)n2)c1` (centres unmarked) [Compound 26, 3-[3-(3-pyridinyl)-1,2,4-oxadiazol-5-yl]-1-azabicyclo[2.2.2]octane], the IC50 reads like this: (in absence of PPi) greater than 10000 nM; (in presence of 1 mM PPi) 660 nM.
